The record followed here is US20110136666A1, “CHEMICAL COMPOUNDS” (SYNGENTA CROP PROTECTION, INC., priority 2008, published 2011).

What all share (type): in vivo
Test [1] deals with Setaria faberi (SETFA). Put plainly: Post-emergence biological efficacy, glasshouse pot test. The note with it: 312 h, after 13 days, 100=total damage, 0=no damage, read-out: Percentage damage caused to weed species SETFA. The protocol: (§1) Seeds of Alopecurus myosuroides (ALOMY), Setaria faberi (SETFA), Echinochloa crus-galli (ECHCG), Solanum nigrum (SOLNI), Amaranthus retroflexus (AMARE) and Ipomea hederaceae (IPOHE) were sown in standard soil in pots. After cultivation for 8 days under controlled conditions in a glasshouse (at 24/16° C., day/night; 14 hours light; 65% humidity), the plants were sprayed with an aqueous spray solution derived from the formulation of the technical active ingredient in acetone/water (50:50) solution containing 0.5% Tween 20 (polyoxyethylene sorbitan monolaurate, CAS RN 9005-64-5) to give a final dose of 250 or 1000 g/ha of test compound.
(§2) The test plants were then grown on under controlled conditions in a glasshouse (at 24/16° C., day/night; 14 hours light; 65% humidity) and watered twice daily. After 13 days the test was evaluated (100=total damage to plant; 0=no damage to plant).

Test [2] has as its system Ipomea hederaceae (IPOHE). Described as above. The note with it: Ipomoea hederacea, 312 h, after 13 days, 100=total damage, 0=no damage, read-out: Percentage damage caused to weed species IPONE. Here is the method: as §1, §2
Test [3] has as its system Amaranthus retroflexus (AMARE). The description is as above. The note with it: 312 h, after 13 days, 100=total damage, 0=no damage, read-out: Percentage damage caused to weed species AMARE. The protocol:
as §1, §2

For test [4], the system named is Echinochloa crus-galli (ECHCG). The test is described as above. The note with it: 312 h, after 13 days, 100=total damage, 0=no damage, read-out: Percentage damage caused to weed species ECHCG. Here is the method:
as §1, §2

Test [5] deals with Alopecurus myosuroides (ALOMY). Described as above. The note with it: 312 h, after 13 days, 100=total damage, 0=no damage, read-out: Percentage damage caused to weed species ALOMY. Here is the method:
as §1, §2

The subject of test [6] is Solanum nigrum (SOLNI). The description is as above. The note with it: 312 h, after 13 days, 100=total damage, 0=no damage, read-out: Percentage damage caused to weed species SOLNI. Here is the method: as §1, §2
The subject of test [7] is Setaria faberi (SETFA). Briefly: Pre-emergence biological efficacy, glasshouse pot test. The note with it: 312 h, after 13 days, 100=total damage, 0=no damage, read-out: Percentage damage caused to weed species SETFA. The protocol:
as §1, with “one day” for “8 days”
(§3) The test plants were then grown under controlled conditions in the glasshouse (at 24/16° C., day/night; 14 hours light; 65% humidity) and watered twice daily. After 13 days the test was evaluated (100=total damage to plant; 0=no damage to plant).

Test [8] relates to Ipomea hederaceae (IPOHE). The description is as above. The note with it: Ipomoea hederacea, 312 h, after 13 days, 100=total damage, 0=no damage, read-out: Percentage damage caused to weed species IPOHE. The protocol:
as §1, with “one day” for “8 days”
as §3

The test system of test [9] is Amaranthus retroflexus (AMARE). Described as above. The note with it: 312 h, after 13 days, 100=total damage, 0=no damage, read-out: Percentage damage caused to weed species AMARE. Here is the method: as §1, with “one day” for “8 days”
as §3

Test [10] relates to Echinochloa crus-galli (ECHCG). The test is described as above. The note with it: 312 h, after 13 days, 100=total damage, 0=no damage, read-out: Percentage damage caused to weed species ECHCG. Here is the method:
as §1, with “one day” for “8 days”
as §3

Test [11] relates to Alopecurus myosuroides (ALOMY). Described as above. The note with it: 312 h, after 13 days, 100=total damage, 0=no damage, read-out: Percentage damage caused to weed species ALOMY. Here is the method: as §1, with “one day” for “8 days”
as §3

Test [12] concerns Solanum nigrum (SOLNI). The test is described as above. The note with it: 312 h, after 13 days, 100=total damage, 0=no damage, read-out: Percentage damage caused to weed species SOLNI. The protocol: as §1, with “one day” for “8 days”
as §3

Regarding `COC(=O)c1nc(-c2ncc3ccccn23)nc(N)c1Cl` [Compound 2-146, 4-Amino-5-chloro-2-(imidazo[1,5-a]pyridin-3-yl)-6-methoxycarbonyl pyrimidine], the pest or weed control at 250 g/ha in the test with Setaria faberi (SETFA) [1] (250 g/ha) came out at 0%; in [2] (250 g/ha) it was 40%; in [3] (250 g/ha), 30%; in test [4] (250 g/ha), 0%; in test [5] (250 g/ha), 0%; in the test with Solanum nigrum (SOLNI) [6] (250 g/ha), 30%. Moreover, the pest or weed control at 250 g/ha (in the test with Setaria faberi (SETFA) [7] (250 g/ha); in [8] (250 g/ha); in test [9] (250 g/ha); in test [10] (250 g/ha); in test [11] (250 g/ha); in the test with Solanum nigrum (SOLNI) [12] (250 g/ha)) was 0% each time.
For `COC(=O)c1nc(-c2cccnc2)nc(N)c1Cl` [Compound 2-153, 4-Amino-5-chloro-6-methoxycarbonyl-2-pyridin-3-ylpyrimidine], the pest or weed control at 1000 g/ha (in the test with Setaria faberi (SETFA) [1]; in test [2]; in [3]; in test [4]; in test [5]; in the test with Solanum nigrum (SOLNI) [6]) was 0% in each case. Besides, the pest or weed control at 1000 g/ha (in the test on Setaria faberi (SETFA) [7]; in test [8]; in [9]; in test [10]; in test [11]; in the test on Solanum nigrum (SOLNI) [12]) was 0% throughout.
Consider `COC(=O)c1nc(-c2cccnc2OC)nc(N)c1Cl` [Compound 2-154, 4-Amino-5-chloro-6-methoxycarbonyl-2-(2-methoxypyridin-3-yl)-pyrimidine], for which the pest or weed control at 1000 g/ha with Setaria faberi (SETFA) [1] was determined as 0%; in [2], 20%; in test [3] it was 70%; in test [4] it was 0%; in test [5], 0%; in the test on Solanum nigrum (SOLNI) [6] it was 30%. Besides, the pest or weed control at 1000 g/ha in the test on Setaria faberi (SETFA) [7] was determined as 0%; in test [8], 0%; in test [9], 0%; in test [10], 0%; in test [11] it was 0%; in the test with Solanum nigrum (SOLNI) [12], 20%.
On to `COC(=O)c1nc(-c2ccc(OC)nc2)nc(N)c1Cl` [Compound 2-155, 4-Amino-5-chloro-6-methoxycarbonyl-2-(2-methoxypyridin-5-yl)-pyrimidine], for which the pest or weed control at 1000 g/ha in the test on Setaria faberi (SETFA) [1] was determined as 80%; in [2], 70%; in test [3], 100%; in test [4], 80%; in test [5], 0%; in the test on Solanum nigrum (SOLNI) [6], 70%. The pest or weed control at 1000 g/ha in the test on Setaria faberi (SETFA) [7] is 0%; in test [8], 0%; in test [9] it was 20%; in [10] it was 0%; in test [11], 0%; in the test on Solanum nigrum (SOLNI) [12] it was 20%.
`COC(=O)c1nc(-c2ccc(Cl)nc2)nc(N)c1Cl` [Compound 2-156, 4-Amino-5-chloro-2-(2-chloropyridin-5-yl)-6-methoxycarbonyl pyrimidine]: the pest or weed control at 1000 g/ha came to 40% in the test on Setaria faberi (SETFA) [1]; 70% in [2]; 100% in test [3]; 30% in test [4]; 40% in [5]; 80% with Solanum nigrum (SOLNI) [6]. Moreover, the pest or weed control at 1000 g/ha in the test on Setaria faberi (SETFA) [7] amounted to 0%; in [8], 0%; in test [9], 70%; in [10], 0%; in test [11], 0%; with Solanum nigrum (SOLNI) [12], 60%.
With `COC(=O)c1nc(-c2ccc(F)nc2)nc(N)c1Cl` [Compound 2-157, 4-Amino-5-chloro-2-(2-fluoropyridin-5-yl)-6-methoxycarbonyl pyrimidine], the pest or weed control at 1000 g/ha with Setaria faberi (SETFA) [1] came to 20%; in [2] it was 70%; in test [3] it was 60%; in test [4], 0%; in test [5], 30%; with Solanum nigrum (SOLNI) [6] it was 60%. In addition, the pest or weed control at 1000 g/ha (with Setaria faberi (SETFA) [7]; in [8]; in test [9]; in [10]; in test [11]; with Solanum nigrum (SOLNI) [12]) was 0% throughout.
On to `COC(=O)c1nc(-c2ccc(OC)nc2OC)nc(N)c1Cl` [Compound 2-159, 4-Amino-5-chloro-2-(2,6-dimethoxypyridin-3-yl)-6-methoxycarbonyl pyrimidine], for which the pest or weed control at 1000 g/ha came out at 30% in the test with Setaria faberi (SETFA) [1]; 10% in test [2]; 100% in test [3]; 10% in [4]; 0% in test [5]; 50% in the test with Solanum nigrum (SOLNI) [6]. The pest or weed control at 1000 g/ha (in the test with Setaria faberi (SETFA) [7]; in [8]; in test [9]; in [10]; in test [11]; in the test with Solanum nigrum (SOLNI) [12]) was 0% each time.
Consider `COC(=O)c1nc(-c2ccc(C)nc2F)nc(N)c1Cl` [Compound 2-161, 4-Amino-5-chloro-2-(2-fluoro-6-methylpyridin-3-yl)-6-methoxycarbonyl pyrimidine], for which the pest or weed control at 1000 g/ha with Setaria faberi (SETFA) [1] was 80%; in [2], 100%; in test [3], 90%; in test [4], 60%; in [5], 30%; in the test with Solanum nigrum (SOLNI) [6], 80%. Besides, the pest or weed control at 1000 g/ha with Setaria faberi (SETFA) [7] was 0%; in test [8] it was 0%; in test [9], 60%; in test [10], 0%; in test [11] it was 0%; in the test on Solanum nigrum (SOLNI) [12] it was 40%.
